From US9758485B2, “Compounds for controlling arthropods” (priority 2013, dated 2017)

Columns and labels:
Format in all cases: in vivo
Lucilia cuprina = Lucilia cuprina test; settings: Lucilia cuprina, 48 h; application rate 100 ppm; L1 larvae in minced horsemeat; kill after 2 days; read-out: efficacy
In short: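 About 20 L1 larvae placed on minced horsemeat treated with compound, formulated in DMSO and diluted with water to test concentration. Kill in % scored after 2 days (100% = all larvae dead, 0% = none).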

Ctenocephalides felis = Ctenocephalides felis - in vitro contact tests with adult cat fleas; settings: application rate 5 μg/cm^2 (=500 g/ha), after 48 h (dead or moribund)
In short: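 Acetone solution coated on test-tube inner walls (900 ppm gives 5 μg/cm^2). After drying, 5-10 adult cat fleas added and kept horizontal at room temperature and ambient humidity. At 48 h fleas knocked down; motionless or uncoordinated ones counted dead/moribund, giving % efficacy.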

[1] = system: Boophilus microplus Parkhurst strain, SP-resistant; test: Boophilus microplus - dip test; settings: application rate 100 ppm; dip of engorged adult female ticks; laying of fertile eggs, after 7 days
In short: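 Adult engorged females of SP-resistant Parkhurst strain (8–10 per tube) fully immersed in compound diluted in water from a DMSO solution. Ticks then kept on filter discs in a climate-controlled room; efficacy scored from fertile egg laying at 7 days, with unclear eggs held about 42 days until hatch (100% = no fertile eggs).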

Cc1cc(C(F)(C(F)(F)F)C(F)(F)F)cc(C)c1-n1cc(-c2ccc(Cl)c(C(=O)NC3CC3)c2)cn1 [I-T3-1, 2-chloro-N-cyclopropyl-5-[1-[2,6-dimethyl-4-[1,2,2,2-tetrafluoro-1-(trifluoromethyl)ethyl]phenyl]pyrazol-4-yl]benzamide]
100%: pest or weed control at 100 ppm (Lucilia cuprina) | efficacy (Ctenocephalides felis) | efficacy [1]
